Values of other authors as cited in patent publication US20250231185A1, “Coronavirus T Cell Epitopes, Megapools and Uses Thereof” (La Jolla Institute for Immunology, priority 2021, published 2025).
Like-named read-outs stand apart in the source and are kept apart here.

System: CD8+ T cells
Conditions: cited from earlier work
[1] = CD8RE megapool peptides (non-spike SARS-CoV-2 antigens), dominant epitope Yes/No
[2] = CD8R (D) megapool epitopes, dominant = recognized by 3 or more donors/different studies
[3] = T cell type (CD4 or CD8) recognizing the SARS-CoV-2 epitope
[4] = SARS-CoV-2-derived CD8 epitopes, dominant = recognized by 3 or more donors/different studies
[5] = T cell subset (CD4 or CD8) recognizing the SARS-CoV-2-derived epitope
[6] = SARS-CoV-2 Ag S, T cell type recognizing the epitope

Substance: 3010 (SLRPDTRYVL) [compound 3010]
- Dominant [1]: Yes (more dominant epitopes are defined by being recognized by 3 or more donors/different studies)

Substance: 1775 (SLRPDTRYVL) [compound 1775]
- Dominant [2]: Yes (more dominant epitopes are defined by being recognized by 3 or more donors/different studies)

Substance: 908 (AWPLIVTAL) [compound 908]
- Restriction [3]: CD8

Substance: 539 (GMSRIGMEV) [compound 539]
- Dominant [4]: Yes (more dominant epitopes are defined by being recognized by 3 or more donors/different studies)
- Restriction [5]: CD8

Substance: 622 (FLTENLLLYI) [compound 622]
- Restriction [5]: CD8

Substance: 618 (KLVSSFLEM) [compound 618]
- Restriction [5]: CD8

Substance: 1092 (CATVHTANKW) [compound 1092]
- Restriction [3]: CD8

Substance: 3020 (FLLPSLATV) [compound 3020]
- Dominant [1]: Yes (more dominant epitopes are defined by being recognized by 3 or more donors/different studies)

Substance: 505 (AGLPYGANK) [compound 505]
- Restriction [5]: CD8

Substance: 3049 (VFITLCFTLK) [compound 3049]
- Dominant [1]: Yes (more dominant epitopes are defined by being recognized by 3 or more donors/different studies)

Substance: 1419 (SKRVDFCGKGY) [compound 1419]
- Restriction [6]: CD8

Substance: 1323 (ELLHAPATV) [compound 1323]
- Restriction [6]: CD8

Substance: 1801 (FVRATATIPI) [compound 1801]
- Dominant [2]: Yes (more dominant epitopes are defined by being recognized by 3 or more donors/different studies)

Substance: 2938 (GMSRIGMEV) [compound 2938]
- Dominant [1]: Yes (more dominant epitopes are defined by being recognized by 3 or more donors/different studies)

Substance: 3051 (IQYIDIGNY) [compound 3051]
- Dominant [1]: Yes (more dominant epitopes are defined by being recognized by 3 or more donors/different studies)

Substance: 3013 (TPKYKFVRI) [compound 3013]
- Dominant [1]: Yes (more dominant epitopes are defined by being recognized by 3 or more donors/different studies)

Substance: 937 (DAMRNAGIV) [compound 937]
- Restriction [3]: CD8

Substance: 588 (FELDERIDKVL) [compound 588]
- Restriction [5]: CD8

Substance: 533 (AQFAPSASAF) [compound 533]
- Dominant [4]: Yes (more dominant epitopes are defined by being recognized by 3 or more donors/different studies)
- Restriction [5]: CD8

Substance: 1400 (LSSTASALGK) [compound 1400]
- Restriction [6]: CD8

Substance: 689 (EIDPKLDNY) [compound 689]
- Restriction [5]: CD8

Substance: 626 (ALRKVPTDNY) [compound 626]
- Restriction [5]: CD8

Substance: 977 (SICSTMTNR) [compound 977]
- Restriction [3]: CD8

Substance: 617 (LYDKLVSSF) [compound 617]
- Restriction [5]: CD8

Substance: 2929 (LALLLLDRL) [compound 2929]
- Dominant [1]: Yes (more dominant epitopes are defined by being recognized by 3 or more donors/different studies)

Substance: 2976 (VLWAHGFEL) [compound 2976]
- Dominant [1]: Yes (more dominant epitopes are defined by being recognized by 3 or more donors/different studies)

Substance: 609 (VVVNAANVY) [compound 609]
- Restriction [5]: CD8

Substance: 1038 (IPARARVECF) [compound 1038]
- Restriction [3]: CD8

Substance: 1093 (KLMGHFAWW) [compound 1093]
- Restriction [3]: CD8

Substance: 2954 (ISDYDYYRY) [compound 2954]
- Dominant [1]: Yes (more dominant epitopes are defined by being recognized by 3 or more donors/different studies)

Substance: 638 (VVDYGARFY) [compound 638]
- Restriction [5]: CD8

Substance: 986 (IMASLVLAR) [compound 986]
- Restriction [3]: CD8

Substance: 593 (YLFDESGEF) [compound 593]
- Restriction [5]: CD8

Substance: 1758 (KTIQPRVEK) [compound 1758]
- Dominant [2]: Yes (more dominant epitopes are defined by being recognized by 3 or more donors/different studies)

Substance: 1701 (AQFAPSASAF) [compound 1701]
- Dominant [2]: Yes (more dominant epitopes are defined by being recognized by 3 or more donors/different studies)

Substance: 1049 (LQLGFSTGV) [compound 1049]
- Restriction [3]: CD8

Substance: 900 (TYKNTCDGTTF) [compound 900]
- Restriction [3]: CD8

Substance: 926 (KVAGFAKFLK) [compound 926]
- Restriction [3]: CD8

Substance: 3014 (VRIQPGQTF) [compound 3014]
- Dominant [1]: Yes (more dominant epitopes are defined by being recognized by 3 or more donors/different studies)

Substance: 523 (KPRQKRTAT) [compound 523]
- Dominant [4]: Yes (more dominant epitopes are defined by being recognized by 3 or more donors/different studies)
- Restriction [5]: CD8

Substance: 1368 (GSFCTQLNR) [compound 1368]
- Restriction [6]: CD8

Substance: 1013 (LTNDNTSRYW) [compound 1013]
- Restriction [3]: CD8

Substance: 924 (FDIYNDKVAGF) [compound 924]
- Restriction [3]: CD8

Substance: 1441 (FVSNGTHWF) [compound 1441]
- Restriction [6]: CD8

Substance: 1770 (YIFFASFYY) [compound 1770]
- Dominant [2]: Yes (more dominant epitopes are defined by being recognized by 3 or more donors/different studies)

Substance: 650 (NLKTLLSL) [compound 650]
- Restriction [5]: CD8

Substance: 2903 (GTITVEELK) [compound 2903]
- Dominant [1]: Yes (more dominant epitopes are defined by being recognized by 3 or more donors/different studies)

Substance: 692 (YYKKDNSYF) [compound 692]
- Restriction [5]: CD8

Substance: 2971 (KLNVGDYFV) [compound 2971]
- Dominant [1]: Yes (more dominant epitopes are defined by being recognized by 3 or more donors/different studies)

Substance: 547 (ILLNKHIDA) [compound 547]
- Dominant [4]: Yes (more dominant epitopes are defined by being recognized by 3 or more donors/different studies)
- Restriction [5]: CD8

Substance: 1388 (TDEMIAQY) [compound 1388]
- Restriction [6]: CD8

Substance: 1677 (AVILRGHLR) [compound 1677]
- Dominant [2]: Yes (more dominant epitopes are defined by being recognized by 3 or more donors/different studies)

Substance: 2910 (SMWSFNPET) [compound 2910]
- Dominant [1]: Yes (more dominant epitopes are defined by being recognized by 3 or more donors/different studies)

Substance: 561 (VMVELVAEL) [compound 561]
- Restriction [5]: CD8

Substance: 1717 (KLFDRYFKY) [compound 1717]
- Dominant [2]: Yes (more dominant epitopes are defined by being recognized by 3 or more donors/different studies)

Substance: 2981 (SYATHSDKF) [compound 2981]
- Dominant [1]: Yes (more dominant epitopes are defined by being recognized by 3 or more donors/different studies)

Substance: 1751 (KVDGVDVEL) [compound 1751]
- Dominant [2]: Yes (more dominant epitopes are defined by being recognized by 3 or more donors/different studies)

Substance: 1372 (EVFAQVKQI) [compound 1372]
- Restriction [6]: CD8

Substance: 594 (YLFDESGEFKL) [compound 594]
- Dominant [4]: Yes (more dominant epitopes are defined by being recognized by 3 or more donors/different studies)
- Restriction [5]: CD8

Substance: 3001 (SAPPAQYEL) [compound 3001]
- Dominant [1]: Yes (more dominant epitopes are defined by being recognized by 3 or more donors/different studies)

Substance: 643 (SVYYTSNPTTF) [compound 643]
- Restriction [5]: CD8

Substance: 2970 (VYRGTTTYKL) [compound 2970]
- Dominant [1]: Yes (more dominant epitopes are defined by being recognized by 3 or more donors/different studies)

Substance: 1311 (FERDISTEI) [compound 1311]
- Restriction [6]: CD8

Substance: 602 (TPVVQTIEV) [compound 602]
- Restriction [5]: CD8

Substance: 936 (VRQALLKTV) [compound 936]
- Restriction [3]: CD8

Substance: 508 (IIWVATEGA) [compound 508]
- Restriction [5]: CD8

Substance: 1688 (LSPRWYFYYL) [compound 1688]
- Dominant [2]: Yes (more dominant epitopes are defined by being recognized by 3 or more donors/different studies)

Substance: 688 (TEIDPKLDNYY) [compound 688]
- Restriction [5]: CD8

Substance: 1776 (FLLNKEMYL) [compound 1776]
- Dominant [2]: Yes (more dominant epitopes are defined by being recognized by 3 or more donors/different studies)

Substance: 1344 (YECDIPIGAGI) [compound 1344]
- Restriction [6]: CD8

Substance: 2909 (RLFARTRSMW) [compound 2909]
- Dominant [1]: Yes (more dominant epitopes are defined by being recognized by 3 or more donors/different studies)

Substance: 1359 (IPTNFTISV) [compound 1359]
- Restriction [6]: CD8

Substance: 534 (QFAPSASAFF) [compound 534]
- Restriction [5]: CD8

Substance: 576 (TVYEKLKPV) [compound 576]
- Restriction [5]: CD8

Substance: 1745 (ALLADKFPV) [compound 1745]
- Dominant [2]: Yes (more dominant epitopes are defined by being recognized by 3 or more donors/different studies)

Substance: 972 (NVIPTITQM) [compound 972]
- Restriction [3]: CD8

Substance: 1096 (YVMHANYIF) [compound 1096]
- Restriction [3]: CD8

Substance: 2950 (TMADLVYAL) [compound 2950]
- Dominant [1]: Yes (more dominant epitopes are defined by being recognized by 3 or more donors/different studies)

Substance: 3044 (YYQLYSTQL) [compound 3044]
- Dominant [1]: Yes (more dominant epitopes are defined by being recognized by 3 or more donors/different studies)

Substance: 1097 (FWRNTNPIQL) [compound 1097]
- Restriction [3]: CD8

Substance: 563 (HVGEIPVAY) [compound 563]
- Restriction [5]: CD8

Substance: 558 (VLSEARQHL) [compound 558]
- Dominant [4]: Yes (more dominant epitopes are defined by being recognized by 3 or more donors/different studies)
- Restriction [5]: CD8

Substance: 950 (KIFVDGVPFV) [compound 950]
- Restriction [3]: CD8

Substance: 1045 (ILGLPTQTV) [compound 1045]
- Restriction [3]: CD8

Substance: 1807 (LLYDANYFL) [compound 1807]
- Dominant [2]: Yes (more dominant epitopes are defined by being recognized by 3 or more donors/different studies)

Substance: 3011 (FLLNKEMYL) [compound 3011]
- Dominant [1]: Yes (more dominant epitopes are defined by being recognized by 3 or more donors/different studies)

Substance: 1760 (VTNNTFTLK) [compound 1760]
- Dominant [2]: Yes (more dominant epitopes are defined by being recognized by 3 or more donors/different studies)
